Measurements: patent US10308916B2, “Omega-transaminase mutants with activity improvements toward ketones and methods for producing optically pure amines” (Industry-Academic Cooperation Foundation, Yonsei University, priority 2015, dated 2019)
Several values for one entry are separate records, joined by “and”; a condition that tells them apart may be missing. Identical values can stand only once. Like-named read-outs stand apart in the source and are kept apart here.

Key:
Format in all cases: biochemical
OATA W58L [1] = system: OATA W58L
OATA W58A [2] = system: OATA W58A
OATA W58A [3] = system: OATA W58A; remark: listed apart in the source
OATA L57A/W58A/V154A [4] = system: OATA L57A/W58A/V154A
OATA L57A/W58A [5] = system: OATA L57A/W58A
OATA L57A/W58A [6] = system: OATA L57A/W58A; remark: listed apart in the source
OATA L57A [7] = system: OATA L57A
OATA L57A/W58A/V154A [8] = system: OATA L57A/W58A/V154A; remark: listed apart in the source
OATA L57Q/W58N/I261L [9] = system: OATA L57Q/W58N/I261L
OATA W58D/I261A [10] = system: OATA W58D/I261A
OATA L57C/W58L/I261A [11] = system: OATA L57C/W58L/I261A
OATA W58L [12] = system: OATA W58L; remark: listed apart in the source
OATA W58D/I261A [13] = system: OATA W58D/I261A; remark: listed apart in the source
OATA W58A [14] = system: OATA W58A; remark: listed apart in the source
OATA W58I = settings: pH 7
OATA W58M = settings: pH 7
OATA L57A/W58A [15] = system: OATA L57A/W58A; remark: listed apart in the source
OATA L57A [16] = system: OATA L57A; remark: listed apart in the source
OATA L57Q/W58N/I261L [17] = system: OATA L57Q/W58N/I261L; remark: listed apart in the source
OATA L57C/W58L/I261A [18] = system: OATA L57C/W58L/I261A; remark: listed apart in the source
OATA W58L [19] = settings: pH 7
OATA W58V = settings: pH 7
OATA L57A/W58A/V154A [20] = system: OATA L57A/W58A/V154A; remark: listed apart in the source
OATA W58A [21] = settings: pH 7
[22] = system: OATA W58A, OATA W58M, OATA W58V and OATA W58I mutants
W58A mutant = system: W58A mutant
OATA W58L [23] = system: OATA W58L; remark: listed apart in the source
OATA W58L [24] = system: OATA W58L; remark: listed apart in the source

Structure (SMILES): CC(C)C(N)c1ccccc1 (racemic) [2-Methyl-1-phenylpropan-1-amine]
- Relative reactivity, OATA W58L (OATA W58L [1]): 2%
- relative activity to (S)-α-MBA measured with OATA WT, OATA W58A (OATA W58A [2]): 6%
- Relative reactivity, OATA W58A (OATA W58A [3]): 3%
- Relative activity, OATA L57A/W58A/V154A (OATA L57A/W58A/V154A [4]): 167%
- Relative activity, OATA L57A/W58A (OATA L57A/W58A [5]): 12%

Structure (SMILES): CCC(=O)C(=O)O [2-oxobutanoic acid]
- Relative activity, OATA L57A/W58A (OATA L57A/W58A [6]): 290%
- fold increase in reaction rate compared to OATA L57A (OATA L57A/W58A [6]): 8
- Relative activity, OATA L57A (OATA L57A [7]): 34%
- Relative activity, OATA L57A/W58A/V154A (OATA L57A/W58A/V154A [8]): 852%
- fold increase in reaction rate compared to OATA L57A (OATA L57A/W58A/V154A [8]): 25

Structure (SMILES): CCCCC(=O)C(=O)O [2-oxohexanoic acid]
- Relative activity, OATA L57A/W58A (OATA L57A/W58A [6]): 49%
- Relative activity, OATA L57A (OATA L57A [7]): 15%
- Relative activity, OATA L57A/W58A/V154A (OATA L57A/W58A/V154A [8]): 114%

Structure (SMILES): CCCCCCC(=O)C(=O)O [2-oxooctanoic acid]
- Relative activity, OATA L57A/W58A (OATA L57A/W58A [6]): 7%
- Relative activity, OATA L57A (OATA L57A [7]): 2%
- Relative activity, OATA L57A/W58A/V154A (OATA L57A/W58A/V154A [8]): 21%

Structure (SMILES): CCCC(=O)C(=O)O [2-oxopentanoic acid]
- Relative activity, OATA L57A/W58A (OATA L57A/W58A [6]): 103%
- Relative activity, OATA L57A (OATA L57A [7]): 40%
- Relative activity, OATA L57A/W58A/V154A (OATA L57A/W58A/V154A [8]): 206%

Structure (SMILES): C[C@H](N)c1ccccc1 [(S)-α-methylbenzylamine]
- Relative reactivity, OATA W58L (OATA W58L [1]): 100%
- Relative reactivity, OATA W58A (OATA W58A [3]): 100%
- Relative activity, OATA L57Q/W58N/I261L (OATA L57Q/W58N/I261L [9]): 262%
- Relative activity, OATA L57A/W58A/V154A (OATA L57A/W58A/V154A [4]): 1,190%^
- Relative activity, OATA W58D/I261A (OATA W58D/I261A [10]): 17%
- Relative activity, OATA L57A/W58A (OATA L57A/W58A [5]): 621%
- Relative activity, OATA L57C/W58L/I261A (OATA L57C/W58L/I261A [11]): 900%
- Fold-increase in kcat/KM (OATA W58L [12]): 170
- fold decrease in KM (tighter binding) (OATA W58L [12]): 207

Structure (SMILES): CCC[C@H](N)c1ccccc1 [(S)-α-propylbenzylamine]
- Relative reactivity, OATA W58L (OATA W58L [1]): 2%
- relative activity to (S)-α-MBA measured with OATA WT, OATA W58A (OATA W58A [2]): 20%
- Relative reactivity, OATA W58A (OATA W58A [3]): 10%
- Relative activity, OATA L57A/W58A/V154A (OATA L57A/W58A/V154A [4]): 749%
- Relative activity, OATA L57A/W58A (OATA L57A/W58A [5]): 240%

Structure (SMILES): NCc1ccccc1 [Benzylamine]
- Relative reactivity, OATA W58L (OATA W58L [1]): 49%
- Relative reactivity, OATA W58A (OATA W58A [3]): 50%
- Relative activity, OATA L57Q/W58N/I261L (OATA L57Q/W58N/I261L [9]): 123%
- Relative activity, OATA W58D/I261A (OATA W58D/I261A [10]): 17%
- Relative activity, OATA L57C/W58L/I261A (OATA L57C/W58L/I261A [11]): 792%

Structure (SMILES): CC(C)N [Isopropylamine]
- Relative reactivity, OATA W58L (OATA W58L [1]): 72%
- Relative reactivity, OATA W58A (OATA W58A [3]): 28%
- Relative activity, OATA L57Q/W58N/I261L (OATA L57Q/W58N/I261L [9]): 23%
- Relative activity, OATA L57C/W58L/I261A (OATA L57C/W58L/I261A [11]): 8%
- Fold-increase in kcat/KM (OATA W58L [12]): 8.6
- fold decrease in KM (tighter binding) (OATA W58L [12]): 8.9

Structure (SMILES): CC(=O)c1ccccc1 [Ketone 1a, acetophenone]
- Relative activity, OATA W58D/I261A (OATA W58D/I261A [13]): 648%
- Relative activity, OATA W58A (OATA W58A [14]): 1,206%^
- Relative activity to acetophenone, OATA W58I (OATA W58I): 100%
- Relative activity to acetophenone, OATA W58M (OATA W58M): 100%
- Relative activity, OATA L57A/W58A (OATA L57A/W58A [15]): 716%
- Relative activity, OATA L57A (OATA L57A [16]): 89%
- Relative activity, OATA L57Q/W58N/I261L (OATA L57Q/W58N/I261L [17]): 2,500%
- Relative activity, OATA L57C/W58L/I261A (OATA L57C/W58L/I261A [18]): 12,174%
- Relative activity to acetophenone, OATA W58L (OATA W58L [19]): 100%
- Relative activity to acetophenone, OATA W58V (OATA W58V): 100%
- Relative activity, OATA L57A/W58A/V154A (OATA L57A/W58A/V154A [20]): 637%
- Relative activity to acetophenone, OATA W58A (OATA W58A [21]): 100%
- fold increase in reactivity as compared to OATA WT [22]: more than 40
- fold increase in activity (W58A mutant): 41
- Fold-increase in kcat/KM (OATA W58L [12]): 340
- fold decrease in KM (tighter binding) (OATA W58L [12]): 6.1
- fold increase in turnover number (kcat) (OATA W58L [12]): 55.7
- kcat relative to kcat of the wild-type enzyme for pyruvate (OATA W58L [12]): up to 20%

Structure (SMILES): CCCC(=O)c1ccccc1 [Ketone 1c, butyrophenone]
- Relative activity, OATA W58A (OATA W58A [14]): 8%
- Relative activity to acetophenone, OATA W58I (OATA W58I): 11%
- Relative activity to acetophenone, OATA W58M (OATA W58M): 15%
- Relative activity, OATA L57A/W58A (OATA L57A/W58A [15]): 302%
- fold increase in amination activity compared to OATA W58A (OATA L57A/W58A [15]): > 30 and 38
- Relative activity, OATA L57A (OATA L57A [16]): 1%
- Relative activity to acetophenone, OATA W58L (OATA W58L [19]): >0.1%^
- Relative activity to acetophenone, OATA W58V (OATA W58V): 12%
- Relative activity, OATA L57A/W58A/V154A (OATA L57A/W58A/V154A [20]): 747%
- Relative activity to acetophenone, OATA W58A (OATA W58A [21]): 8%

Structure (SMILES): CC(=O)CCc1ccccc1 [Ketone 1f, benzylacetone]
- Relative activity to acetophenone, OATA W58I (OATA W58I): 125%
- Relative activity to acetophenone, OATA W58M (OATA W58M): 178%
- Relative activity, OATA L57A (OATA L57A [16]): 439%
- Relative activity, OATA L57C/W58L/I261A (OATA L57C/W58L/I261A [18]): 6,330%
- Conversion (%) OATAW58L (OATA W58L [23]): 93%
- Conversion, preparative scale (OATA W58L [23]): 92%
- Relative activity to acetophenone, OATA W58L (OATA W58L [19]): 277%
- Relative activity to acetophenone, OATA W58V (OATA W58V): 193%
- Relative activity to acetophenone, OATA W58A (OATA W58A [21]): 219%

Structure (SMILES): O=C1CCc2ccccc21 [Ketone 1g, 1-indanone]
- Relative activity to acetophenone, OATA W58I (OATA W58I): 16%
- Relative activity to acetophenone, OATA W58M (OATA W58M): 20%
- Relative activity, OATA L57A (OATA L57A [16]): 0.6%
- Relative activity, OATA L57C/W58L/I261A (OATA L57C/W58L/I261A [18]): 609%
- Relative activity to acetophenone, OATA W58L (OATA W58L [19]): 2%
- Relative activity to acetophenone, OATA W58V (OATA W58V): 17%
- Relative activity to acetophenone, OATA W58A (OATA W58A [21]): 15%

Structure (SMILES): O=C1CCc2ccccc21 [Ketone 1g]
- Fold-increase (OATA W58L [24]): >760

Structure (SMILES): O=C1CCCc2ccccc21 [Ketone 1h]
- Fold-increase (OATA W58L [24]): >210

Structure (SMILES): CC(=O)C(=O)O [pyruvate, pyruvic acid]
- Relative activity, OATA L57A/W58A (OATA L57A/W58A [6]): 707%
- Relative activity, OATA L57A (OATA L57A [7]): 77%
- Relative activity, OATA L57A/W58A/V154A (OATA L57A/W58A/V154A [8]): 1,190%
- Fold-increase in kcat/KM (OATA W58L [12]): 0.41
- decrease in specificity constant (kcat/KM) (OATA W58L [12]): 60%
- fold increase in turnover number (kcat) (OATA W58L [12]): 7.1
- weaker binding, fold decrease in KM as printed (OATA W58L [12]): 17.5
